Measured values as given in ChEMBL document CHEMBL2434896, “Carbonic anhydrase inhibitors. Synthesis of heterocyclic 4-substituted pyridine-3-sulfonamide derivatives and their inhibition of the human cytosolic isozymes I and II and transmembrane tumor-associated isozymes IX and XII” (Eur J Med Chem, 2013).
Calls of active or inactive are those of the source. The rule behind the calls is not given here.

How the values were obtained:
RPMI-8226 = assay: Growth inhibition of human RPMI8226 cells at 10 uM after 48 hrs by sulforhodamine B assay; format: functional; details: RPMI-8226, 48 h, read-out: GI
T47D = assay: Growth inhibition of human T47D cells at 10 uM after 48 hrs by sulforhodamine B assay; format: functional; details: read-out: GI
SK-MEL-28 = assay: Growth inhibition of human SK-MEL-28 cells at 10 uM after 48 hrs by sulforhodamine B assay; format: functional, cell-based
SK-OV-3 = assay: Growth inhibition of human SKOV3 cells at 10 uM after 48 hrs by sulforhodamine B assay; format: functional; details: SK-OV-3, 48 h, read-out: GI
NCI/ADR-RES = assay: Growth inhibition of human NCI-ADR-RES cells at 10 uM after 48 hrs by sulforhodamine B assay; format: functional
786-0 = assay: Growth inhibition of human 786-0 cells at 10 uM after 48 hrs by sulforhodamine B assay; format: functional
ACHN = assay: Growth inhibition of human ACHN cells at 10 uM after 48 hrs by sulforhodamine B assay; format: functional
COLO 205 = assay: Growth inhibition of human COLO205 cells at 10 uM after 48 hrs by sulforhodamine B assay; format: functional; details: COLO 205, 48 h, read-out: GI
HCT-15 = assay: Growth inhibition of human HCT15 cells at 10 uM after 48 hrs by sulforhodamine B assay; format: functional
Carbonic anhydrase 9 = Carbonic anhydrase 9 (Homo sapiens, UniProt Q16790); assay: Inhibition of human carbonic anhydrase 9 after 15 mins by stopped flow CO2 hydration assay
HT-29 = assay: Growth inhibition of human HT-29 cells at 10 uM after 48 hrs by sulforhodamine B assay; format: functional; details: HT-29, 48 h, read-out: GI
[1] = Growth inhibition of human EKVX cells at 10 uM after 48 hrs by sulforhodamine B assay; format: functional; details: read-out: GI
PC-3 = assay: Growth inhibition of human PC3 cells at 10 uM after 48 hrs by sulforhodamine B assay; format: functional; details: PC-3, 48 h, read-out: GI
MDA-MB-231 = assay: Growth inhibition of human MDA-MB-231 cells at 10 uM after 48 hrs by sulforhodamine B assay; format: functional
NCI-H23 = assay: Growth inhibition of human NCI-H23 cells at 10 uM after 48 hrs by sulforhodamine B assay; format: functional
HL-60(TB) = assay: Growth inhibition of human HL-60(TB) cells at 10 uM after 48 hrs by sulforhodamine B assay; format: functional
UACC-257 = assay: Growth inhibition of human UACC257 cells at 10 uM after 48 hrs by sulforhodamine B assay; format: functional
HCC 2998 = assay: Growth inhibition of human HCC2998 cells at 10 uM after 48 hrs by sulforhodamine B assay; format: functional
SK-MEL-2 = assay: Growth inhibition of human SK-MEL-2 cells at 10 uM after 48 hrs by sulforhodamine B assay; format: functional
IGROV-1 = assay: Growth inhibition of human IGROV1 cells at 10 uM after 48 hrs by sulforhodamine B assay; format: functional; details: IGROV-1, 48 h, read-out: GI
SN12C = assay: Growth inhibition of human SN12C cells at 10 uM after 48 hrs by sulforhodamine B assay; format: functional
NCI-H226 = assay: Growth inhibition of human NCI-H226 cells at 10 uM after 48 hrs by sulforhodamine B assay; format: functional
HOP-62 = assay: Growth inhibition of human HOP62 cells at 10 uM after 48 hrs by sulforhodamine B assay; format: functional
SNB-19 = assay: Growth inhibition of human SNB19 cells at 10 uM after 48 hrs by sulforhodamine B assay; format: functional
M14 = assay: Growth inhibition of human M14 cells at 10 uM after 48 hrs by sulforhodamine B assay; format: functional
Malme-3M = assay: Growth inhibition of human MALME-3M cells at 10 uM after 48 hrs by sulforhodamine B assay; format: functional; details: read-out: GI
MDA-MB-435 = assay: Growth inhibition of human MDA-MB-435 cells at 10 uM after 48 hrs by sulforhodamine B assay; format: functional
SNB-75 = assay: Growth inhibition of human SNB75 cells at 10 uM after 48 hrs by sulforhodamine B assay; format: functional
NCI-H322M = assay: Growth inhibition of human NCI-H322M cells at 10 uM after 48 hrs by sulforhodamine B assay; format: functional; details: read-out: GI
TK-10 = assay: Growth inhibition of human TK10 cells at 10 uM after 48 hrs by sulforhodamine B assay; format: functional; details: TK-10, 48 h, read-out: GI
U-251 = assay: Growth inhibition of human U251 cells at 10 uM after 48 hrs by sulforhodamine B assay; format: functional; details: U-251, 48 h, read-out: GI
LOX IMVI = assay: Growth inhibition of human LOXIMVI cells at 10 uM after 48 hrs by sulforhodamine B assay; format: functional; details: read-out: GI
SF-295 = assay: Growth inhibition of human SF295 cells at 10 uM after 48 hrs by sulforhodamine B assay; format: functional; details: SF-295, 48 h, read-out: GI
OVCAR-5 = assay: Growth inhibition of human OVCAR5 cells at 10 uM after 48 hrs by sulforhodamine B assay; format: functional; details: OVCAR-5, 48 h, read-out: GI
SK-MEL-5 = assay: Growth inhibition of human SK-MEL-5 cells at 10 uM after 48 hrs by sulforhodamine B assay; format: functional; details: SK-MEL-5, 48 h, read-out: GI
SF-539 = assay: Growth inhibition of human SF539 cells at 10 uM after 48 hrs by sulforhodamine B assay; format: functional; details: SF-539, 48 h, read-out: GI
Hs-578T = assay: Growth inhibition of human Hs 578T cells at 10 uM after 48 hrs by sulforhodamine B assay; format: functional
SF-268 = assay: Growth inhibition of human SF268 cells at 10 uM after 48 hrs by sulforhodamine B assay; format: functional
SR = assay: Growth inhibition of human SR cells at 10 uM after 48 hrs by sulforhodamine B assay; format: functional
NCI-H460 = assay: Growth inhibition of human NCI-H460 cells at 10 uM after 48 hrs by sulforhodamine B assay; format: functional
HCT-116 = assay: Growth inhibition of human HCT116 cells at 10 uM after 48 hrs by sulforhodamine B assay; format: functional
KM12 = assay: Growth inhibition of human KM12 cells at 10 uM after 48 hrs by sulforhodamine B assay; format: functional
OVCAR-8 = assay: Growth inhibition of human OVCAR8 cells at 10 uM after 48 hrs by sulforhodamine B assay; format: functional
CAKI-1 = assay: Growth inhibition of human CAKI-1 cells at 10 uM after 48 hrs by sulforhodamine B assay; format: functional; details: CAKI-1, 48 h, read-out: GI
K562 = assay: Growth inhibition of human K562 cells at 10 uM after 48 hrs by sulforhodamine B assay; format: functional
CCRF-CEM = assay: Growth inhibition of human CCRF-CEM cells at 10 uM after 48 hrs by sulforhodamine B assay; format: functional; details: read-out: GI
MCF7 = assay: Growth inhibition of human MCF7 cells at 10 uM after 48 hrs by sulforhodamine B assay; format: functional
SW-620 = assay: Growth inhibition of human SW620 cells at 10 uM after 48 hrs by sulforhodamine B assay; format: functional
DU-145 = assay: Growth inhibition of human DU145 cells at 10 uM after 48 hrs by sulforhodamine B assay; format: functional
OVCAR-4 = assay: Growth inhibition of human OVCAR4 cells at 10 uM after 48 hrs by sulforhodamine B assay; format: functional
UO-31 = assay: Growth inhibition of human UO31 cells at 10 uM after 48 hrs by sulforhodamine B assay; format: functional; details: UO-31, 48 h, read-out: GI
BT-549 = assay: Growth inhibition of human BT549 cells at 10 uM after 48 hrs by sulforhodamine B assay; format: functional
OVCAR-3 = assay: Growth inhibition of human OVCAR3 cells at 10 uM after 48 hrs by sulforhodamine B assay; format: functional
NCI-H522 = assay: Growth inhibition of human NCI-H522 cells at 10 uM after 48 hrs by sulforhodamine B assay; format: functional
A498 = assay: Growth inhibition of human A498 cells at 10 uM after 48 hrs by sulforhodamine B assay; format: functional
UACC-62 = assay: Growth inhibition of human UACC62 cells at 10 uM after 48 hrs by sulforhodamine B assay; format: functional
A549 = assay: Growth inhibition of human A549/ATCC cells at 10 uM after 48 hrs by sulforhodamine B assay; format: functional; details: A549, 48 h, read-out: GI
MOLT-4 = assay: Growth inhibition of human MOLT4 cells at 10 uM after 48 hrs by sulforhodamine B assay; format: functional; details: MOLT-4, 48 h, read-out: GI

CCCCc1c(C)nn(-c2ccncc2S(N)(=O)=O)c1C
inhibition of growth at 10 µM (RPMI-8226): 27% | inhibition of growth at 10 µM (T47D): 11% | growth inhibition (GI) (SK-MEL-28): inactive | inhibition of growth at 10 µM (SK-OV-3): 2% | growth inhibition (GI) (NCI/ADR-RES): inactive | growth inhibition (GI) (786-0): inactive | growth inhibition (GI) (ACHN): inactive | inhibition of growth at 10 µM (COLO 205): 1% | growth inhibition (GI) (HCT-15): inactive | Ki (Carbonic anhydrase 9): 48.6 nM | inhibition of growth at 10 µM (HT-29): 15% | inhibition of growth at 10 µM [1]: 6% | inhibition of growth at 10 µM (PC-3): 8% | growth inhibition (GI) (MDA-MB-231): inactive | growth inhibition (GI) (NCI-H23): inactive | growth inhibition (GI) (HL-60(TB)): inactive | growth inhibition (GI) (UACC-257): inactive | growth inhibition (GI) (HCC 2998): inactive | growth inhibition (GI) (SK-MEL-2): inactive | inhibition of growth at 10 µM (IGROV-1): 3% | growth inhibition (GI) (SN12C): inactive | growth inhibition (GI) (NCI-H226): inactive | growth inhibition (GI) (HOP-62): inactive | growth inhibition (GI) (SNB-19): inactive | growth inhibition (GI) (M14): inactive | inhibition of growth at 10 µM (Malme-3M): 13% | growth inhibition (GI) (MDA-MB-435): inactive | growth inhibition (GI) (SNB-75): inactive | inhibition of growth at 10 µM (NCI-H322M): 7% | inhibition of growth at 10 µM (TK-10): 9% | inhibition of growth at 10 µM (U-251): 8% | inhibition of growth at 10 µM (LOX IMVI): 2% | inhibition of growth at 10 µM (SF-295): 8% | inhibition of growth at 10 µM (OVCAR-5): 8% | inhibition of growth at 10 µM (SK-MEL-5): 16% | inhibition of growth at 10 µM (SF-539): 3% | growth inhibition (GI) (Hs-578T): inactive | growth inhibition (GI) (SF-268): inactive | growth inhibition (GI) (SR): inactive | growth inhibition (GI) (NCI-H460): inactive | growth inhibition (GI) (HCT-116): inactive | growth inhibition (GI) (KM12): inactive | growth inhibition (GI) (OVCAR-8): inactive | inhibition of growth at 10 µM (CAKI-1): 5% | growth inhibition (GI) (K562): inactive | inhibition of growth at 10 µM (CCRF-CEM): 8% | growth inhibition (GI) (MCF7): inactive | growth inhibition (GI) (SW-620): inactive | growth inhibition (GI) (DU-145): inactive | growth inhibition (GI) (OVCAR-4): inactive | inhibition of growth at 10 µM (UO-31): 23% | growth inhibition (GI) (BT-549): inactive | growth inhibition (GI) (OVCAR-3): inactive | growth inhibition (GI) (NCI-H522): inactive | growth inhibition (GI) (A498): inactive | growth inhibition (GI) (UACC-62): inactive | inhibition of growth at 10 µM (A549): 17% | inhibition of growth at 10 µM (MOLT-4): 17%
